Earlier results in publication PMC4411882, “Developmental Potential for Endomorphin Opioidmimetic Drugs” (International Journal of Medicinal Chemistry, 2012).
Where a SMILES comes first, the peptide text is derived from it. [ ]: non-standard residue; d: D form. The star is where a group is joined. Dmt = Cc1cc(O)cc(C)c1C[CH](N)C(=O)O; NHPhenethyl = c1ccc(CCN*)cc1; NHBn = c1ccc(CN*)cc1; NHPh = c1ccc(N*)cc1

Tests used:
μ-opioid receptor = μ-opioid receptor (Rattus norvegicus, UniProt P33535); set-up: gene Oprm1; rat brain P2 synaptosomal preparations; species or system rat brain P2 synaptosomal preparations; settings: read-out: Kiμ
Sequence of μ-opioid receptor (P33535 whole entry): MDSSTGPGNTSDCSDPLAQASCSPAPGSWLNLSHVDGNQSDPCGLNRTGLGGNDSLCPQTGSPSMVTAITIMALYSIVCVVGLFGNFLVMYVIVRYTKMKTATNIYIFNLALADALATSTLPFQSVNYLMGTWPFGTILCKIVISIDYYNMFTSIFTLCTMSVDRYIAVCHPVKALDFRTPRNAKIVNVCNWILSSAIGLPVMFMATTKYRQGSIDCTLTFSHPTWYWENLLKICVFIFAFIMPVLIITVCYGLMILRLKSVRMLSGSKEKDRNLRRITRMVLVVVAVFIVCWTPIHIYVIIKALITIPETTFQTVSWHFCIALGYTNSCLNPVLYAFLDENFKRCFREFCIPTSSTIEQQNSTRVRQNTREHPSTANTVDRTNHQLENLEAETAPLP

δ-opioid receptor = δ-opioid receptor (Rattus norvegicus, UniProt P33533); set-up: gene Oprd1; rat brain P2 synaptosomal preparations; species or system rat brain P2 synaptosomal preparations; settings: read-out: Kiδ
Sequence of δ-opioid receptor (P33533 whole entry): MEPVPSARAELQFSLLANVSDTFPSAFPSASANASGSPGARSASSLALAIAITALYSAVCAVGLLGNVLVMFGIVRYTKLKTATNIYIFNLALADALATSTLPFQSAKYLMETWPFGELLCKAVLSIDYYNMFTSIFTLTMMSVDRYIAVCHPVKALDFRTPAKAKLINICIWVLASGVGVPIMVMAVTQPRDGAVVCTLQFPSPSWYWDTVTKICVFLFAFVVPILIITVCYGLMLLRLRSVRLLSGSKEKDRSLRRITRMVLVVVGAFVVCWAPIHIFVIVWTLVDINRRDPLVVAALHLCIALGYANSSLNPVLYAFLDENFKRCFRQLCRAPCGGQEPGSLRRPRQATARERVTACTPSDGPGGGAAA

δ-opioid receptor (MVD) = biological target: T1, δ-opioid receptor (MVD) (Mus musculus, UniProt P32300); set-up: species or system mouse vas deferens
T1 construct: gene Oprd1; mouse vas deferens (MVD) bioassay
T1 sequence (P32300 whole entry): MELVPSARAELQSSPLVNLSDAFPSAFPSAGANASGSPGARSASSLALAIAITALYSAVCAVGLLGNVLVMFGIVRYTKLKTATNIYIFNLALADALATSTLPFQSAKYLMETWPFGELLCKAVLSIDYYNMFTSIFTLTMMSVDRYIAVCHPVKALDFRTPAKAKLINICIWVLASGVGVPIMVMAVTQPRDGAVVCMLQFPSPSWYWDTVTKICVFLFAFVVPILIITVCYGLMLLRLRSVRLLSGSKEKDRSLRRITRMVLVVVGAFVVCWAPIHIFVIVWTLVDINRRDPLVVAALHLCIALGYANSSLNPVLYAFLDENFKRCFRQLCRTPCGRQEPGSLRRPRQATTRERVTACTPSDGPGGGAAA
Text: (§1) Therefore, we substituted hydrophobic groups in lieu of the phenethyl group to develop the class of H-Dmt-Pro-Phe-NH-X ligands (Figure 1).

μ-opioid receptor (GPI) = biological target: T2, μ-opioid receptor (GPI) (Cavia porcellus, UniProt P97266); set-up: species or system guinea pig ileum
T2 construct: gene OPRM1; guinea pig ileum (GPI) bioassay
T2 sequence (P97266 whole entry): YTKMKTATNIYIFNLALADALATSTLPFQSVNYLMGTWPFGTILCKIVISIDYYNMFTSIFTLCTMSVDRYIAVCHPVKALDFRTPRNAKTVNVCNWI
Text: as §1

In the case of NC(=O)C(Cc1ccccc1)NC(=O)C(Cc1ccccc1)NC(=O)C1CCCN1C(=O)C(N)Cc1ccc(O)cc1 [compound 12, L-D-L-L (EM-2), [D-Pro^2]EM-2], the Ki (μ-opioid receptor) is given as 512 nM.
In the case of NC(=O)[C@H](Cc1ccccc1)NC(=O)[C@@H]1CCCN1C(=O)[C@@H](N)Cc1ccc(O)cc1 [compound 18, H-Tyr-Pro-Phe-NH2] (H-Tyr-Pro-Phe-NH2), the Ki (μ-opioid receptor) is listed as 46.1 nM and the Ki (δ-opioid receptor) is listed as 15900 nM.
For Cc1cc(O)cc(C)c1C[C@H](N)C(=O)N1CCC[C@H]1C(=O)N[C@@H](Cc1c[nH]c2ccccc12)C(=O)N[C@@H](Cc1ccccc1)C(N)=O [compound 19, H-Dmt-Pro-Trp-Phe-NH2, [Dmt^1]EM-1], the Ki (μ-opioid receptor) is given as 0.054 nM, the IC50 (δ-opioid receptor (MVD)) is given as over 10000 nM and the Ki (δ-opioid receptor) is given as 5.6 nM. The IC50 (μ-opioid receptor (GPI)) was 0.27 nM.
For Cc1cc(O)cc(C)c1C[C@H](N)C(=O)N1CCC[C@H]1C(=O)N[C@@H](Cc1ccccc1)C(=O)N[C@@H](Cc1ccccc1)C(N)=O [compound 20, H-Dmt-Pro-Phe-Phe-NH2, [Dmt^1]EM-2], the Ki (μ-opioid receptor) is listed as 0.15 nM, the IC50 (δ-opioid receptor (MVD)) is listed as 1.87 nM and the Ki (δ-opioid receptor) is listed as 28.2 nM. For the same compound, the IC50 (μ-opioid receptor (GPI)) was 0.07 nM.
For Cc1cc(O)cc(C)c1CC(N)C(=O)N1CCCC1C(=O)NC(Cc1ccccc1)C(N)=O (stereo not drawn) [compound 21, H-Dmt-Pro-Phe-NH2] (H-[Dmt]-Pro-Phe-NH2; configuration not given here), the Ki (μ-opioid receptor) is listed as 0.12 nM, the IC50 (δ-opioid receptor (MVD)) is listed as 113 nM and the Ki (δ-opioid receptor) is listed as 53.2 nM. For the same compound, the IC50 (μ-opioid receptor (GPI)) was 2.33 nM.
For Cc1cc(O)cc(C)c1C[C@H](N)C(=O)N1CCC[C@H]1C(=O)N[C@@H](Cc1ccccc1)C(=O)NCCc1ccccc1 [compound 22, H-Dmt-Pro-Phe-NH-C2H4-Ph] (H-[Dmt]-Pro-Phe-NHPhenethyl), the Ki (μ-opioid receptor) is given as 0.51 nM, the IC50 (δ-opioid receptor (MVD)) is given as over 10000 nM and the Ki (δ-opioid receptor) is given as 18 nM. For the same compound, the IC50 (μ-opioid receptor (GPI)) was 5.03 nM.
For Cc1cc(O)cc(C)c1C[C@H](N)C(=O)N1CCC[C@H]1C(=O)N[C@@H](Cc1ccccc1)C(=O)NCc1ccccc1 [compound 23, H-Dmt-Pro-Phe-NH-Bzl] (H-[Dmt]-Pro-Phe-NHBn), the Ki (μ-opioid receptor) is listed as 0.52 nM, the IC50 (δ-opioid receptor (MVD)) is listed as over 10000 nM and the Ki (δ-opioid receptor) is listed as 13.8 nM. The IC50 (μ-opioid receptor (GPI)) was 22 nM.
For Cc1cc(O)cc(C)c1C[C@H](N)C(=O)N1CCC[C@H]1C(=O)N[C@@H](Cc1ccccc1)C(=O)Nc1ccccc1 [compound 24, H-Dmt-Pro-Phe-NH-Ph] (H-[Dmt]-Pro-Phe-NHPh), the Ki (μ-opioid receptor) is given as 1.11 nM, the IC50 (δ-opioid receptor (MVD)) is given as over 10000 nM and the Ki (δ-opioid receptor) is given as 20.6 nM. The IC50 (μ-opioid receptor (GPI)) was 37.7 nM.
For Cc1cc(O)cc(C)c1C[C@H](N)C(=O)N1CCC[C@H]1C(=O)N[C@@H](Cc1ccccc1)C(=O)Nc1cccnc1 [compound 26, H-Dmt-Pro-Phe-NH-3-Pyr], the Ki (μ-opioid receptor) is listed as 0.17 nM, the IC50 (δ-opioid receptor (MVD)) is listed as over 10000 nM and the Ki (δ-opioid receptor) is listed as 287 nM. The IC50 (μ-opioid receptor (GPI)) was 72.8 nM.
In the case of Cc1cc(O)cc(C)c1C[C@H](N)C(=O)N1CCC[C@H]1C(=O)N[C@@H](Cc1ccccc1)C(=O)Nc1ccccn1 [compound 27, H-Dmt-Pro-Phe-NH-2-Pyr], the Ki (μ-opioid receptor) is given as 0.13 nM, the IC50 (δ-opioid receptor (MVD)) is given as over 10000 nM and the Ki (δ-opioid receptor) is given as 157 nM. The IC50 (μ-opioid receptor (GPI)) was 15 nM.
For Cc1cc(O)cc(C)c1C[C@H](N)C(=O)N1CCC[C@H]1C(=O)N[C@@H](Cc1ccccc1)C(=O)Nc1cccc2ccccc12 [compound 28, H-Dmt-Pro-Phe-NH-1-Nph], the IC50 (δ-opioid receptor (MVD)) is listed as 5.47 nM, the Ki (δ-opioid receptor) is listed as 19.9 nM and the IC50 (μ-opioid receptor (GPI)) is listed as 0.49 nM.
For Cc1cc(O)cc(C)c1C[C@H](N)C(=O)N1CCC[C@H]1C(=O)N[C@@H](Cc1ccccc1)C(=O)Nc1cnc2ccccc2c1 [compound 29, H-Dmt-Pro-Phe-NH-3-Qln], the Ki (μ-opioid receptor) is listed as 0.33 nM, the IC50 (δ-opioid receptor (MVD)) is listed as over 10000 nM and the Ki (δ-opioid receptor) is listed as 190 nM. For the same compound, the IC50 (μ-opioid receptor (GPI)) was 9.14 nM.
For Cc1cc(O)cc(C)c1C[C@H](N)C(=O)N1CCC[C@H]1C(=O)N[C@@H](Cc1ccccc1)C(=O)Nc1cccc2ncccc12 [compound 30, H-Dmt-Pro-Phe-NH-5-Qln], the Ki (μ-opioid receptor) is given as 0.11 nM, the IC50 (δ-opioid receptor (MVD)) is given as 0.616 nM and the Ki (δ-opioid receptor) is given as 30 nM. For the same compound, the IC50 (μ-opioid receptor (GPI)) was 0.26 nM.
For Cc1cc(O)cc(C)c1C[C@H](N)C(=O)N1CCC[C@H]1C(=O)N[C@@H](Cc1ccccc1)C(=O)Nc1ccc2ncccc2c1 [compound 31, H-Dmt-Pro-Phe-NH-6-Qln], the Ki (μ-opioid receptor) is listed as 0.22 nM, the IC50 (δ-opioid receptor (MVD)) is listed as over 10000 nM and the Ki (δ-opioid receptor) is listed as 46.6 nM. The IC50 (μ-opioid receptor (GPI)) was 6.21 nM.
For Cc1cc(O)cc(C)c1C[C@H](N)C(=O)N1CCC[C@H]1C(=O)N[C@@H](Cc1ccccc1)C(=O)Nc1cccc2cccnc12 [compound 32, H-Dmt-Pro-Phe-NH-8-Qln], the Ki (μ-opioid receptor) is listed as 0.49 nM, the IC50 (δ-opioid receptor (MVD)) is listed as 2980 nM and the Ki (δ-opioid receptor) is listed as 33.1 nM. The IC50 (μ-opioid receptor (GPI)) was 445 nM.
In the case of Cc1cc(O)cc(C)c1C[C@H](N)C(=O)N1CCC[C@H]1C(=O)N[C@@H](Cc1ccccc1)C(=O)Nc1cccc2cnccc12 [compound 33, H-Dmt-Pro-Phe-NH-5-Isq], the Ki (μ-opioid receptor) is given as 0.19 nM, the IC50 (δ-opioid receptor (MVD)) is given as over 10000 nM and the Ki (δ-opioid receptor) is given as 98.3 nM. The IC50 (μ-opioid receptor (GPI)) was 0.94 nM.
For CCc1cc(O)cc(C)c1C[C@H](N)C(=O)N1CCC[C@H]1C(=O)N[C@@H](Cc1ccccc1)C(=O)N[C@@H](Cc1ccccc1)C(N)=O [compound 35, H-Emt-Pro-Phe-Phe-NH2], the Ki (μ-opioid receptor) is given as 0.063 nM, the IC50 (δ-opioid receptor (MVD)) is given as 1.08 nM and the Ki (δ-opioid receptor) is given as 55.7 nM. For the same compound, the IC50 (μ-opioid receptor (GPI)) was 0.623 nM.
For Cc1cc(O)cc(C(C)C)c1C[C@H](N)C(=O)N1CCC[C@H]1C(=O)N[C@@H](Cc1ccccc1)C(=O)N[C@@H](Cc1ccccc1)C(N)=O [compound 36, H-Imt-Pro-Phe-Phe-NH2], the Ki (μ-opioid receptor) is given as 0.15 nM, the IC50 (δ-opioid receptor (MVD)) is given as 601 nM and the Ki (δ-opioid receptor) is given as 190 nM. The IC50 (μ-opioid receptor (GPI)) was 10.6 nM.
For CCc1cc(O)cc(CC)c1C[C@H](N)C(=O)N1CCC[C@H]1C(=O)N[C@@H](Cc1ccccc1)C(=O)N[C@@H](Cc1ccccc1)C(N)=O [compound 37, H-Det-Pro-Phe-Phe-NH2], the Ki (μ-opioid receptor) is listed as 0.084 nM, the IC50 (δ-opioid receptor (MVD)) is listed as 47.1 nM and the Ki (δ-opioid receptor) is listed as 69.7 nM. For the same compound, the IC50 (μ-opioid receptor (GPI)) was 0.903 nM.
For Cc1cc(C)cc(C[C@H](NC(=O)[C@@H]2CCCN2C(=O)[C@@H](N)Cc2c(C)cc(O)cc2C)C(=O)N[C@@H](Cc2ccccc2)C(N)=O)c1 [compound 41, H-Dmt-Pro-^3,5Dmp-Phe-NH2], the Ki (μ-opioid receptor) is given as 0.11 nM, the IC50 (δ-opioid receptor (MVD)) is given as over 10000 nM and the Ki (δ-opioid receptor) is given as 11.6 nM. The IC50 (μ-opioid receptor (GPI)) was 14.4 nM.
In the case of Cc1cccc(C)c1C[C@H](NC(=O)[C@@H]1CCCN1C(=O)[C@@H](N)Cc1c(C)cc(O)cc1C)C(=O)N[C@@H](Cc1ccccc1)C(N)=O [compound 42, H-Dmt-Pro-Dmp-Phe-NH2], the Ki (μ-opioid receptor) is given as 0.069 nM, the IC50 (δ-opioid receptor (MVD)) is given as over 10000 nM and the Ki (δ-opioid receptor) is given as 2.27 nM. For the same compound, the IC50 (μ-opioid receptor (GPI)) was 0.12 nM.
In the case of Cc1cc(O)cc(C)c1C[C@H](NC(=O)[C@@H]1CCCN1C(=O)[C@@H](N)Cc1c(C)cc(O)cc1C)C(=O)N[C@@H](Cc1ccccc1)C(N)=O [compound 43, H-Dmt-Pro-Dmt-Phe-NH2] (H-[Dmt]P[Dmt]F-NH2), the Ki (μ-opioid receptor) is given as 0.092 nM, the IC50 (δ-opioid receptor (MVD)) is given as over 10000 nM and the Ki (δ-opioid receptor) is given as 80.8 nM. The IC50 (μ-opioid receptor (GPI)) was 1.94 nM.
In the case of CCc1cccc(C)c1CC(NC(=O)C1CCCN1C(=O)C(N)Cc1c(C)cc(O)cc1C)C(=O)NC(Cc1ccccc1)C(N)=O (stereo not drawn) [compound 45, H-Dmt-Pro-Emp-Phe-NH2], the Ki (μ-opioid receptor) is listed as 0.21 nM, the IC50 (δ-opioid receptor (MVD)) is listed as 0.51 nM and the Ki (δ-opioid receptor) is listed as 3.03 nM. The IC50 (μ-opioid receptor (GPI)) was 0.17 nM.
In the case of Cc1cc(O)cc(C)c1CC(N)C(=O)NCCc1[nH]c(=O)c(CCNC(=O)C(N)Cc2c(C)cc(O)cc2C)nc1C (centres unmarked) [compound 56, 3,6-bis[Dmt-NH(CH2)2]-5-methyl-2(1H)-pyrazinone], the IC50 (δ-opioid receptor (MVD)) is given as over 10000 nM, the Ki (δ-opioid receptor) is given as 7.26 nM and the IC50 (μ-opioid receptor (GPI)) is given as 12.9 nM.
In the case of Cc1cc(O)cc(C)c1C[C@H](N)C(=O)N1Cc2ccccc2C[C@H]1C(=O)NCCCCCCNC(=O)[C@@H]1Cc2ccccc2CN1C(=O)[C@@H](N)Cc1c(C)cc(O)cc1C [compound 67, bis[Dmt-Tic-NH]hexane], the Ki (μ-opioid receptor) is listed as 1.79 nM, the IC50 (δ-opioid receptor (MVD)) is listed as over 10000 nM and the Ki (δ-opioid receptor) is listed as 0.129 nM.
For H-Dmt-Pro-Phe-NH-4-Pyr [compound 25], the IC50 (δ-opioid receptor (MVD)) is given as over 10000 nM, the Ki (δ-opioid receptor) is given as 52.6 nM and the IC50 (μ-opioid receptor (GPI)) is given as 11.8 nM.
